Data: ChEMBL document CHEMBL3045812, “Synthesis of fatty acid Schiff base esters as potential antimicrobial and chemotherapeutic agents” (Med Chem Res, 2013)
≈ marks a conversion by molar mass, not a printed value. Calls of active or inactive are those of the source. The rule behind the calls is not given here.

Tests used:
Candida albicans [1] = experiment: Antifungal activity against Candida albicans MTCC 7315 after 24 hr by microtiter broth dilution method; format: functional; settings: MTCC 7315, 24 h
Candida albicans [2] = experiment: Antifungal activity against Candida albicans MTCC 227 after 24 hr by microtiter broth dilution method; format: functional; settings: MTCC 227, 24 h
Candida albicans [3] = experiment: Antifungal activity against Candida albicans MTCC 854 after 24 hr by microtiter broth dilution method; format: functional; settings: MTCC 854, 24 h
Raoultella planticola = experiment: Antibacterial activity against Raoultella planticola MTCC 530 at 1.4 to 300 ug/ml after 24 hr by microtiter broth dilution method; format: functional, organism-based
Escherichia coli = experiment: Antibacterial activity against Escherichia coli MTCC 739 at 1.4 to 300 ug/ml after 24 hr by microtiter broth dilution method; format: functional, organism-based
Micrococcus luteus = experiment: Antibacterial activity against Micrococcus luteus MTCC 2470 at 1.4 to 300 ug/ml after 24 hr by microtiter broth dilution method; format: functional, organism-based
Pseudomonas aeruginosa = experiment: Antibacterial activity against Pseudomonas aeruginosa MTCC 2453 after 24 hr by microtiter broth dilution method; format: functional
Staphylococcus aureus [4] = experiment: Antibacterial activity against Staphylococcus aureus MLS16 MTCC 2940 after 24 hr by microtiter broth dilution method; format: functional
Bacillus subtilis = experiment: Antibacterial activity against Bacillus subtilis MTCC 121 after 24 hr by microtiter broth dilution method; format: functional
Staphylococcus aureus [5] = experiment: Antibacterial activity against Staphylococcus aureus MTCC 96 after 24 hr by microtiter broth dilution method; format: functional
N2a = experiment: Cytotoxicity against Mus musculus (mouse) Neuro2a cells by tetrazolium-reduction assay; format: functional, cell-based
HeLa = experiment: Cytotoxicity against Homo sapiens (human) HeLa cells by tetrazolium-reduction assay; format: functional, cell-based
HepG2 = experiment: Cytotoxicity against Homo sapiens (human) HepG2 cells by tetrazolium-reduction assay; format: functional, cell-based
A549 = experiment: Cytotoxicity against Homo sapiens (human) A549 cells by tetrazolium-reduction assay; format: functional, cell-based
Pichia sporocuriosa = experiment: Antifungal activity against Issatchenkia hanoiensis MTCC 4755 after 24 hr by microtiter broth dilution method; format: functional; settings: MTCC 4755, 24 h
[Candida] aaseri [6] = Antifungal activity against Candida aaseri MTCC 1962 after 24 hr by microtiter broth dilution method; format: functional; settings: Yamadazyma aaseri, MTCC 1962, 24 h
Pichia kudriavzevii = experiment: Antifungal activity against Pichia kudriavzevii MTCC 3020 after 24 hr by microtiter broth dilution method; format: functional; settings: MTCC 3020, 24 h
Nakaseomyces glabratus [7] = experiment: Antifungal activity against Candida glabrata MTCC 3019 after 24 hr by microtiter broth dilution method; format: functional
Candida parapsilosis [8] = experiment: Antifungal activity against Candida parapsilosis MTCC 1744 after 24 hr by microtiter broth dilution method; format: functional; settings: Lodderomyces parapsilosis, MTCC 1744, 24 h
Candida albicans [9] = experiment: Antifungal activity against Candida albicans MTCC 3018 after 24 hr by microtiter broth dilution method; format: functional; settings: MTCC 3018, 24 h
Candida albicans [10] = experiment: Antifungal activity against Candida albicans MTCC 3017 after 24 hr by microtiter broth dilution method; format: functional
Candida albicans [11] = experiment: Antifungal activity against Candida albicans MTCC 3958 after 24 hr by microtiter broth dilution method; format: functional; settings: MTCC 3958, 24 h
Candida albicans [12] = experiment: Antifungal activity against Candida albicans MTCC 1637 after 24 hr by microtiter broth dilution method; format: functional; settings: MTCC 1637, 24 h
Candida albicans [13] = experiment: Antifungal activity against Candida albicans MTCC 183 after 24 hr by microtiter broth dilution method; format: functional; settings: MTCC 183, 24 h
MDA-MB-231 = experiment: Cytotoxicity against Homo sapiens (human) MDA-MB-231 cells by tetrazolium-reduction assay; format: functional, cell-based
MCF7 = experiment: Cytotoxicity against Homo sapiens (human) MCF7 cells by tetrazolium-reduction assay; format: functional, cell-based
Candida albicans [14] = experiment: Antifungal activity against Candida albicans MTCC 227 at 1.4 to 300 ug/ml after 24 hr by microtiter broth dilution method; format: functional, organism-based
Candida albicans [15] = experiment: Antifungal activity against Candida albicans MTCC 854 at 1.4 to 300 ug/ml after 24 hr by microtiter broth dilution method; format: functional, organism-based
[Candida] aaseri [16] = Antifungal activity against Candida aaseri MTCC 1962 at 1.4 to 300 ug/ml after 24 hr by microtiter broth dilution method; format: functional, organism-based
Candida parapsilosis [17] = experiment: Antifungal activity against Candida parapsilosis MTCC 1744 at 1.4 to 300 ug/ml after 24 hr by microtiter broth dilution method; format: functional, organism-based
Nakaseomyces glabratus [18] = experiment: Antifungal activity against Candida glabrata MTCC 3019 at 1.4 to 300 ug/ml after 24 hr by microtiter broth dilution method; format: functional, organism-based
Candida albicans [19] = experiment: Antifungal activity against Candida albicans MTCC 3017 at 1.4 to 300 ug/ml after 24 hr by microtiter broth dilution method; format: functional, organism-based
Candida albicans [20] = experiment: Antifungal activity against Candida albicans MTCC 3018 at 1.4 to 300 ug/ml after 24 hr by microtiter broth dilution method; format: functional, organism-based
Candida albicans [21] = experiment: Antifungal activity against Candida albicans MTCC 3958 at 1.4 to 300 ug/ml after 24 hr by microtiter broth dilution method; format: functional, organism-based
Candida albicans [22] = experiment: Antifungal activity against Candida albicans MTCC 1637 at 1.4 to 300 ug/ml after 24 hr by microtiter broth dilution method; format: functional, organism-based
Candida albicans [23] = experiment: Antifungal activity against Candida albicans MTCC 183 at 1.4 to 300 ug/ml after 24 hr by microtiter broth dilution method; format: functional, organism-based
Candida albicans [24] = experiment: Antifungal activity against Candida albicans MTCC 7315 at 1.4 to 300 ug/ml after 24 hr by microtiter broth dilution method; format: functional, organism-based

## CCCCCCC(=O)Oc1ccc(/C=N/Cc2cccnc2)cc1
Candida albicans [1]
  MIC: 150 µg/mL (≈ 462 µM)
Candida albicans [2]
  MIC: 75 µg/mL (≈ 231 µM)
Candida albicans [3]
  MIC: 300 µg/mL (≈ 925 µM)
Raoultella planticola
  Activity: inactive
Escherichia coli
  Activity: inactive
Micrococcus luteus
  Activity: inactive
Pseudomonas aeruginosa; MTCC 2453, 24 h
  MIC: 37.5 µg/mL (≈ 116 µM)
Staphylococcus aureus [4]; MLS16 MTCC 2940, 24 h
  MIC: 150 µg/mL (≈ 462 µM)
Bacillus subtilis; MTCC 121, 24 h
  MIC: 300 µg/mL (≈ 925 µM)
Staphylococcus aureus [5]; MTCC 96, 24 h
  MIC: 37.5 µg/mL (≈ 116 µM)
N2a
  Activity: inactive
HeLa
  Activity: inactive
HepG2
  Activity: inactive
A549
  Activity: inactive
Pichia sporocuriosa
  MIC: 75 µg/mL (≈ 231 µM)
[Candida] aaseri [6]
  MIC: 75 µg/mL (≈ 231 µM)
Pichia kudriavzevii
  MIC: 75 µg/mL (≈ 231 µM)
Nakaseomyces glabratus [7]
  MIC: inactive
Candida parapsilosis [8]
  MIC: 300 µg/mL (≈ 925 µM)
Candida albicans [9]
  MIC: 75 µg/mL (≈ 231 µM)
Candida albicans [10]
  MIC: inactive
Candida albicans [11]
  MIC: 150 µg/mL (≈ 462 µM)
Candida albicans [12]
  MIC: 150 µg/mL (≈ 462 µM)
Candida albicans [13]
  MIC: 300 µg/mL (≈ 925 µM)
MDA-MB-231
  IC50: 15 µM
MCF7; mcf7
  IC50: Not Active

## NC[C@@H]1O[C@H](O[C@H]2[C@@H](O)[C@H](O[C@@H]3[C@@H](O)[C@H](N)C[C@H](N)[C@H]3O[C@H]3O[C@H](CN)[C@@H](O)[C@H](O)[C@H]3N)O[C@@H]2CO)[C@H](N)[C@@H](O)[C@@H]1O [FRAMYCETIN]
Pseudomonas aeruginosa; MTCC 2453, 24 h
  MIC: 18.8 µg/mL (≈ 30.5 µM)
Staphylococcus aureus [4]; MLS16 MTCC 2940, 24 h
  MIC: 18.8 µg/mL (≈ 30.5 µM)
Bacillus subtilis; MTCC 121, 24 h
  MIC: 18.8 µg/mL (≈ 30.5 µM)
Staphylococcus aureus [5]; MTCC 96, 24 h
  MIC: 18.8 µg/mL (≈ 30.5 µM)

## Oc1ccc(/C=N/Cc2cccnc2)cc1
Pseudomonas aeruginosa
  MIC: inactive
Staphylococcus aureus [4]
  MIC: inactive
Bacillus subtilis
  MIC: inactive
Staphylococcus aureus [5]; MTCC 96, 24 h
  MIC: 75 µg/mL (≈ 353 µM)
N2a
  Activity: inactive
HeLa
  Activity: inactive
HepG2
  Activity: inactive
A549
  Activity: inactive
Candida albicans [14]
  Activity: inactive
Candida albicans [15]
  Activity: inactive
MDA-MB-231
  IC50: 16.9 µM
MCF7; Homo sapiens, MCF7, read-out: IC50
  IC50: 12 µM
[Candida] aaseri [16]
  Activity: inactive
Candida parapsilosis [17]
  Activity: inactive
Nakaseomyces glabratus [18]
  Activity: inactive
Candida albicans [19]
  Activity: inactive
Candida albicans [20]
  Activity: inactive
Candida albicans [21]
  Activity: inactive
Candida albicans [22]
  Activity: inactive
Candida albicans [23]
  Activity: inactive
Candida albicans [24]
  Activity: inactive

## CCCCCCCCCCCCCCCC(=O)Oc1ccc(/C=N/Cc2cccnc2)cc1
Raoultella planticola
  Activity: inactive
Escherichia coli
  Activity: inactive
Micrococcus luteus
  Activity: inactive
Pseudomonas aeruginosa
  MIC: inactive
Staphylococcus aureus [4]
  MIC: inactive
Bacillus subtilis
  MIC: inactive
Staphylococcus aureus [5]
  MIC: inactive
N2a
  Activity: inactive
HeLa
  Activity: inactive
HepG2
  Activity: inactive
A549
  Activity: inactive
Candida albicans [14]
  Activity: inactive
Candida albicans [15]
  Activity: inactive
[Candida] aaseri [16]
  Activity: inactive
Candida parapsilosis [17]
  Activity: inactive
Nakaseomyces glabratus [18]
  Activity: inactive
Candida albicans [19]
  Activity: inactive
Candida albicans [20]
  Activity: inactive
Candida albicans [21]
  Activity: inactive
Candida albicans [22]
  Activity: inactive
Candida albicans [23]
  Activity: inactive
Candida albicans [24]
  Activity: inactive

## CCCCCCCCCC(=O)Oc1ccc(/C=N/Cc2cccnc2)cc1
Candida albicans [1]
  MIC: 300 µg/mL (≈ 819 µM)
Candida albicans [2]
  MIC: 300 µg/mL (≈ 819 µM)
Candida albicans [3]
  MIC: 300 µg/mL (≈ 819 µM)
Raoultella planticola
  Activity: inactive
Escherichia coli
  Activity: inactive
Micrococcus luteus
  Activity: inactive
Pseudomonas aeruginosa; MTCC 2453, 24 h
  MIC: 75 µg/mL (≈ 205 µM)
Staphylococcus aureus [4]; MLS16 MTCC 2940, 24 h
  MIC: 300 µg/mL (≈ 819 µM)
Bacillus subtilis
  MIC: inactive
Staphylococcus aureus [5]; MTCC 96, 24 h
  MIC: 37.5 µg/mL (≈ 102 µM)
N2a
  Activity: inactive
HeLa
  Activity: inactive
HepG2
  Activity: inactive
A549
  Activity: inactive
Pichia sporocuriosa
  MIC: 75 µg/mL (≈ 205 µM)
[Candida] aaseri [6]
  MIC: 75 µg/mL (≈ 205 µM)
Pichia kudriavzevii
  MIC: 150 µg/mL (≈ 409 µM)
Nakaseomyces glabratus [7]; MTCC 3019, 24 h
  MIC: 150 µg/mL (≈ 409 µM)
Candida parapsilosis [8]
  MIC: 150 µg/mL (≈ 409 µM)
Candida albicans [9]
  MIC: 75 µg/mL (≈ 205 µM)
Candida albicans [10]
  MIC: inactive
Candida albicans [11]
  MIC: 300 µg/mL (≈ 819 µM)
Candida albicans [12]
  MIC: 300 µg/mL (≈ 819 µM)
Candida albicans [13]
  MIC: 300 µg/mL (≈ 819 µM)

## OC(Cn1cncn1)(Cn1cncn1)c1ccc(F)cc1F [FLUCONAZOLE]
Candida albicans [1]
  MIC: 32 µg/mL (≈ 104 µM)
Candida albicans [2]
  MIC: 32 µg/mL (≈ 104 µM)
Candida albicans [3]
  MIC: 32 µg/mL (≈ 104 µM)
Pichia sporocuriosa
  MIC: 64 µg/mL (≈ 209 µM)
[Candida] aaseri [6]
  MIC: 64 µg/mL (≈ 209 µM)
Pichia kudriavzevii
  MIC: 128 µg/mL (≈ 418 µM)
Nakaseomyces glabratus [7]; MTCC 3019, 24 h
  MIC: 64 µg/mL (≈ 209 µM)
Candida parapsilosis [8]
  MIC: 16 µg/mL (≈ 52.2 µM)
Candida albicans [9]
  MIC: 32 µg/mL (≈ 104 µM)
Candida albicans [10]; MTCC 3017, 24 h
  MIC: 64 µg/mL (≈ 209 µM)
Candida albicans [11]
  MIC: 64 µg/mL (≈ 209 µM)
Candida albicans [12]
  MIC: 64 µg/mL (≈ 209 µM)
Candida albicans [13]
  MIC: 32 µg/mL (≈ 104 µM)
